Tests used:
Non-transformed hybrids = test: Field tolerance to quizalofop and 2,4-D: non-transformed hybrids; format: in vivo, corn; settings: 1120 g ae/ha
Excerpt: (§1) Two field trials were established at field stations in Hawaii and Indiana. […] The hybrid Hi-II×5XH571 is of the same parentage as the AAD1 (v3) event lines. The hybrid Croplan 585SR is a sethoxydim resistant line.
(§2) The experimental design was a split-plot with four replications. The main plot was herbicide treatment and the sub-plot was AAD1 (v3) event or comparison hybrid. Plots were one row by 3.7 meters with approximately twenty-five seeds planted in each row. For AAD1 events, seeds from a different lineage within the event were planted in each replicate.
(§3) Glufosinate at 560 g ai/ha was applied to AAD1 (v3) plots at the V2 stage to eliminate non-transformed plants. […] Treatments were applied using backpack broadcast boom equipment delivering 187 L/ha carrier volume at 130-200 kpa pressure.
(§4) Quizalofop treated plots were visually assessed for crop injury at one and three weeks after application (WAA) using a 0-100% scale, where 0 equals no injury and 100 equals complete death.

AAD1 (v3) event lines = test: Field tolerance of pDAB3404 T1 corn to quizalofop and 2,4-D: AAD1 (v3) events; format: in vivo; settings: 1120 g ae/ha
Excerpt: as §1, §2, §3, §4

[1] = tested on: Arabidopsis thaliana var. Columbia; test: Arabidopsis plate test bioassay for herbicide degradation; format: in vivo; settings: Arabidopsis thaliana, 168 h, read-out: GR50, Chemical alone
[2] = tested on: T4 Arabidopsis homozygous for AAD1 (v3) (line AAD1.01.315.076); test: Foliar-applied auxinic herbicides on homozygous T4 AAD1 (v3) Arabidopsis, % injury 14 DAT; format: in vivo, Arabidopsis thaliana; settings: foliar, 50-3200 g ae/ha
Description: The ability of AAD1 (v3) to provide resistance to other aryloxyphenoxyalkanoate auxin herbicides in transgenic Arabidopsis was determined by foliar application of various substrates described in Example 6.8. T4 generation Arabidopsis seed, homozygous for AAD1 (v3) (line AAD1.01.315.076) was stratified, and sown into selection trays much like that of Arabidopsis (Example 6.4). A transformed-control line containing PAT and the insect resistance gene Cry1F was planted in a similar manner. Seedlings were transferred to individual 3-inch pots in the greenhouse. All plants were sprayed with the use of a track sprayer set at 187 L/ha. […] All applications were formulated in 200 mM Hepes buffer (pH 7.5). Each treatment was replicated 3-4 times. Plants were evaluated at 3 and 14 days after treatment and are averaged over two experiments.

SMILES: CNC.O=C(O)COc1ccc(Cl)cc1Cl [2,4-D amine]
- %Leaning 2 DAA (0-100 scale) (Non-transformed hybrids; HI, CROPLAN 585SR): 33%
- Braceroot Deformation 3-4 WAA (0-10 scale) (Non-transformed hybrids; HI, CROPLAN 585SR): 9
- %Leaning 2 DAA (0-100 scale) (Non-transformed hybrids; HI, DK493): 23%
- Braceroot Deformation 3-4 WAA (0-10 scale) (Non-transformed hybrids; HI, DK493): 9
- %Leaning 2 DAA (0-100 scale) (Non-transformed hybrids; HI, HI-II X 5XH571): 34%
- Braceroot Deformation 3-4 WAA (0-10 scale) (Non-transformed hybrids; HI, HI-II X 5XH571): 9
- %Leaning 2 DAA (0-100 scale) (Non-transformed hybrids; IN, CROPLAN 585SR): 11%
- Braceroot Deformation 3-4 WAA (0-10 scale) (Non-transformed hybrids; IN, CROPLAN 585SR): 9
- %Leaning 2 DAA (0-100 scale) (Non-transformed hybrids; IN, DK493): 20%
- Braceroot Deformation 3-4 WAA (0-10 scale) (Non-transformed hybrids; IN, DK493): 8
- %Leaning 2 DAA (0-100 scale) (Non-transformed hybrids; IN, HI-II X 5XH571): 13%
- Braceroot Deformation 3-4 WAA (0-10 scale) (Non-transformed hybrids; IN, HI-II X 5XH571): 7
- %Leaning 2 DAA (0-100 scale) (AAD1 (v3) event lines; HI, 3404.001): 5%
- Braceroot Deformation 3-4 WAA (0-10 scale) (AAD1 (v3) event lines; HI, 3404.001): 2
- %Leaning 2 DAA (0-100 scale) (AAD1 (v3) event lines; HI, 3404.006): 0%
- Braceroot Deformation 3-4 WAA (0-10 scale) (AAD1 (v3) event lines; HI, 3404.006): 0
- %Leaning 2 DAA (0-100 scale) (AAD1 (v3) event lines; HI, 3404.013): 0%
- Braceroot Deformation 3-4 WAA (0-10 scale) (AAD1 (v3) event lines; HI, 3404.013): 0
- %Leaning 2 DAA (0-100 scale) (AAD1 (v3) event lines; HI, 3404.017): 0%
- Braceroot Deformation 3-4 WAA (0-10 scale) (AAD1 (v3) event lines; HI, 3404.017): 0
- %Leaning 2 DAA (0-100 scale) (AAD1 (v3) event lines; HI, 3404.020): 0%
- Braceroot Deformation 3-4 WAA (0-10 scale) (AAD1 (v3) event lines; HI, 3404.020): 0
- %Leaning 2 DAA (0-100 scale) (AAD1 (v3) event lines; HI, 3404.022): 0%
- Braceroot Deformation 3-4 WAA (0-10 scale) (AAD1 (v3) event lines; HI, 3404.022): 0
- %Leaning 2 DAA (0-100 scale) (AAD1 (v3) event lines; HI, 3404.025): 0%
- Braceroot Deformation 3-4 WAA (0-10 scale) (AAD1 (v3) event lines; HI, 3404.025): 0
- %Leaning 2 DAA (0-100 scale) (AAD1 (v3) event lines; HI, 3404.027): 0%
- Braceroot Deformation 3-4 WAA (0-10 scale) (AAD1 (v3) event lines; HI, 3404.027): 0
- %Leaning 2 DAA (0-100 scale) (AAD1 (v3) event lines; HI, 3404.031): 0%
- Braceroot Deformation 3-4 WAA (0-10 scale) (AAD1 (v3) event lines; HI, 3404.031): 0
- %Leaning 2 DAA (0-100 scale) (AAD1 (v3) event lines; HI, 3404.033): 0%
- Braceroot Deformation 3-4 WAA (0-10 scale) (AAD1 (v3) event lines; HI, 3404.033): 0
- %Leaning 2 DAA (0-100 scale) (AAD1 (v3) event lines; HI, 3404.036): 0%
- Braceroot Deformation 3-4 WAA (0-10 scale) (AAD1 (v3) event lines; HI, 3404.036): 0
- %Leaning 2 DAA (0-100 scale) (AAD1 (v3) event lines; HI, 3404.044): 0%
- Braceroot Deformation 3-4 WAA (0-10 scale) (AAD1 (v3) event lines; HI, 3404.044): 1
- %Leaning 2 DAA (0-100 scale) (AAD1 (v3) event lines; HI, 3404.050): 1%
- Braceroot Deformation 3-4 WAA (0-10 scale) (AAD1 (v3) event lines; HI, 3404.050): 1
- %Leaning 2 DAA (0-100 scale) (AAD1 (v3) event lines; HI, 3404.053): 0%
- Braceroot Deformation 3-4 WAA (0-10 scale) (AAD1 (v3) event lines; HI, 3404.053): 0
- %Leaning 2 DAA (0-100 scale) (AAD1 (v3) event lines; HI, 3404.074): 0%
- Braceroot Deformation 3-4 WAA (0-10 scale) (AAD1 (v3) event lines; HI, 3404.074): 0
- %Leaning 2 DAA (0-100 scale) (AAD1 (v3) event lines; HI, 3404.082): 0%
- Braceroot Deformation 3-4 WAA (0-10 scale) (AAD1 (v3) event lines; HI, 3404.082): 1
- %Leaning 2 DAA (0-100 scale) (AAD1 (v3) event lines; IN, 3404.001): 0%
- Braceroot Deformation 3-4 WAA (0-10 scale) (AAD1 (v3) event lines; IN, 3404.001): 1
- %Leaning 2 DAA (0-100 scale) (AAD1 (v3) event lines; IN, 3404.006): 0%
- Braceroot Deformation 3-4 WAA (0-10 scale) (AAD1 (v3) event lines; IN, 3404.006): 0
- %Leaning 2 DAA (0-100 scale) (AAD1 (v3) event lines; IN, 3404.013): 0%
- Braceroot Deformation 3-4 WAA (0-10 scale) (AAD1 (v3) event lines; IN, 3404.013): 0
- %Leaning 2 DAA (0-100 scale) (AAD1 (v3) event lines; IN, 3404.017): 1%
- Braceroot Deformation 3-4 WAA (0-10 scale) (AAD1 (v3) event lines; IN, 3404.017): 0
- %Leaning 2 DAA (0-100 scale) (AAD1 (v3) event lines; IN, 3404.020): 0%
- Braceroot Deformation 3-4 WAA (0-10 scale) (AAD1 (v3) event lines; IN, 3404.020): 0
- %Leaning 2 DAA (0-100 scale) (AAD1 (v3) event lines; IN, 3404.022): 1%
- Braceroot Deformation 3-4 WAA (0-10 scale) (AAD1 (v3) event lines; IN, 3404.022): 0
- %Leaning 2 DAA (0-100 scale) (AAD1 (v3) event lines; IN, 3404.025): 0%
- Braceroot Deformation 3-4 WAA (0-10 scale) (AAD1 (v3) event lines; IN, 3404.025): 0
- %Leaning 2 DAA (0-100 scale) (AAD1 (v3) event lines; IN, 3404.027): 3%
- Braceroot Deformation 3-4 WAA (0-10 scale) (AAD1 (v3) event lines; IN, 3404.027): 0
- %Leaning 2 DAA (0-100 scale) (AAD1 (v3) event lines; IN, 3404.031): 1%
- Braceroot Deformation 3-4 WAA (0-10 scale) (AAD1 (v3) event lines; IN, 3404.031): 0
- %Leaning 2 DAA (0-100 scale) (AAD1 (v3) event lines; IN, 3404.033): 0%
- Braceroot Deformation 3-4 WAA (0-10 scale) (AAD1 (v3) event lines; IN, 3404.033): 0
- %Leaning 2 DAA (0-100 scale) (AAD1 (v3) event lines; IN, 3404.036): 0%
- Braceroot Deformation 3-4 WAA (0-10 scale) (AAD1 (v3) event lines; IN, 3404.036): 0
- %Leaning 2 DAA (0-100 scale) (AAD1 (v3) event lines; IN, 3404.044): 1%
- Braceroot Deformation 3-4 WAA (0-10 scale) (AAD1 (v3) event lines; IN, 3404.044): 0
- %Leaning 2 DAA (0-100 scale) (AAD1 (v3) event lines; IN, 3404.050): 0%
- Braceroot Deformation 3-4 WAA (0-10 scale) (AAD1 (v3) event lines; IN, 3404.050): 0
- %Leaning 2 DAA (0-100 scale) (AAD1 (v3) event lines; IN, 3404.053): 1%
- Braceroot Deformation 3-4 WAA (0-10 scale) (AAD1 (v3) event lines; IN, 3404.053): 0
- %Leaning 2 DAA (0-100 scale) (AAD1 (v3) event lines; IN, 3404.074): 0%
- Braceroot Deformation 3-4 WAA (0-10 scale) (AAD1 (v3) event lines; IN, 3404.074): 0
- %Leaning 2 DAA (0-100 scale) (AAD1 (v3) event lines; IN, 3404.082): 0%
- Braceroot Deformation 3-4 WAA (0-10 scale) (AAD1 (v3) event lines; IN, 3404.082): 0

SMILES: Oc1ccc(Cl)cc1Cl [DCP, 2,4-dichlorophenol]
- IC50 [1]: > 1000 nM
- effect of the metabolite on wildtype or transgenic Arabidopsis [2]: no effect
